Laboratory results reported in patent US8168651B2, “Protein kinase modulators” (Cylene Pharmaceuticals, Inc., priority 2008, dated 2012).

Experiments:
recombinant human CK2 = recombinant human CK2 (Homo sapiens (Human), UniProt P68400); assay: CK2 assay (cell-free, 33P-ATP filter plate); type: biochemical; details: 500 nM compound, cell-free assay; read-out: CK2: % inh 500 nM
[1] = test system: HCT-116 human colorectal carcinoma cells; assay: Cell-proliferation assay using Alamar Blue dye; type: cell-based; details: Homo sapiens, HCT-116, second HCT-116 column (c8); read-out: HCT-116 (uM) cell proliferation modulatory activity;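 further: cells exposed to compound for about 4 days, then Alamar Blue added and dye fluorescence read after about 4 h, compared with medium-only control wells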
recombinant human PIM1 = recombinant human PIM1 (Homo sapiens (Human), UniProt P11309); assay: PIM-1 kinase activity in cell-free in vitro assay; type: biochemical; details: cell-free assay; for inhibition at 0.5 µM: 500 nM compound, read-out: PIM-1: % inh 500 nM
recombinant human PIM1, sequence (P11309 whole entry): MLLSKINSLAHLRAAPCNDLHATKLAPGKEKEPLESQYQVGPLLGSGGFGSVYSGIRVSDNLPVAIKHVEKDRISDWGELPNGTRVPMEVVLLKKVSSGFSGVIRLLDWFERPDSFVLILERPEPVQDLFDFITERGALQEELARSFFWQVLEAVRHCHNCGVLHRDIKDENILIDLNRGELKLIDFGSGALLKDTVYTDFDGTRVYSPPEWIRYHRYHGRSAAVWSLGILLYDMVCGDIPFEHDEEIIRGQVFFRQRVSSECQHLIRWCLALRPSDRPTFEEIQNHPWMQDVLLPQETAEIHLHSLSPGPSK

K-562 = assay: Cell proliferation modulatory activity, K-562; type: cell-based; details: Homo sapiens, K562; K-562 cells
MV-4-11 = assay: Cell proliferation modulatory activity, MV-4-11; type: cell-based; details: Homo sapiens, MV4-11; MV-4-11 cells

recombinant human CK2, sequence (P68400 whole entry): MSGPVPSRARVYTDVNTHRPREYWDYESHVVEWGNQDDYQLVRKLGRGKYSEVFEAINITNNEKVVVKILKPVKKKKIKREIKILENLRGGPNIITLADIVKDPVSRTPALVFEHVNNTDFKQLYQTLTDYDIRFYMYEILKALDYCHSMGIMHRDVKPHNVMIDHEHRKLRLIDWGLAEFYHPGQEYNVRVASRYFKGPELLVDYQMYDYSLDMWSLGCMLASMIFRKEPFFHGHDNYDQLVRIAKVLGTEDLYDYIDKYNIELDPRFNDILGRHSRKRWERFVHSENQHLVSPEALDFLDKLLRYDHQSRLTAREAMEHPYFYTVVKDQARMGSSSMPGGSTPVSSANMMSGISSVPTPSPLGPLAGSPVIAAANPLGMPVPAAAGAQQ
recombinant human CK2, sequence (P67870 whole entry partner): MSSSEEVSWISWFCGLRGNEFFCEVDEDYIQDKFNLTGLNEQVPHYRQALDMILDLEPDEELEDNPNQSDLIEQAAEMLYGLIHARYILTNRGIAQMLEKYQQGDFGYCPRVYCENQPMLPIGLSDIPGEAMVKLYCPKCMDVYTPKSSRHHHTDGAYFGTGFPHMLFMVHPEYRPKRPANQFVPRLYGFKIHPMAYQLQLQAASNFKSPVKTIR

| SMILES | inhibition at 0.5 µM (recombinant human CK2) [%] | IC50 [1] [µM] | inhibition at 0.5 µM (recombinant human PIM1) [%] | IC50 (K-562) [µM] | IC50 (MV-4-11) [µM] | IC50 (recombinant human PIM1) [µM] |
| --- | --- | --- | --- | --- | --- | --- |
| CN1CCCC1CNc1nc2cc(C#N)ccc2c2sccc12 (centres unmarked) | 0.724 | 4.41 | 8.14 | 6.5 | 3.74 | – |
| N#Cc1ccc2c(c1)nc(N1CCC(N3CCCC3)CC1)c1ccsc12 | -6.67 | 5.66 | 35.7 | 6.94 | 3.36 | – |
| N#Cc1ccc2c(c1)nc(NCc1ccccn1)c1ccsc12 | 100 | > 10 | 2.17 | > 10 | > 10 | – |
| N#Cc1ccc2c(c1)nc(NCCc1ccccn1)c1ccsc12 | 5.18 | > 10 | 10.6 | > 10 | > 10 | – |
| CN(CCc1ccccn1)c1nc2cc(C#N)ccc2c2sccc12 | 44.5 | > 10 | 19.4 | > 10 | > 10 | – |
| N#Cc1ccc2c(c1)nc(N1CCC(c3cccnc3)C1)c1ccsc12 (centres unmarked) | 0.642 | > 10 | -11.2 | > 10 | > 10 | – |
| N#Cc1ccc2c(c1)nc(N1CCN(c3ccccn3)CC1)c1ccsc12 | 7.66 | > 10 | 11 | > 10 | > 10 | – |
| N#Cc1ccc2c(c1)nc(N1CCNC(=O)C1)c1ccsc12 | -4.51 | > 10 | 8.04 | > 10 | > 10 | – |
| CC(=O)NC1CCN(c2nc3cc(C#N)ccc3c3sccc23)C1 (centres unmarked) | -8.88 | > 10 | 5.75 | > 10 | > 10 | – |
| CC(=O)N1CCN(c2nc3cc(C#N)ccc3c3sccc23)CC1 | 3.48 | > 10 | 7.13 | > 10 | > 10 | – |
| N#Cc1ccc2c(c1)nc(N1CCC[C@H]1C(N)=O)c1ccsc12 | 4.42 | > 10 | 12.2 | > 10 | > 10 | – |
| CN1CCN(c2nc3cc(C#N)ccc3c3sccc23)CC1 | 24.3 | 8.77 | 15.8 | > 10 | 4.79 | – |
| CN1CC(Nc2nc3cc(C#N)ccc3c3sccc23)C1 | 20.6 | 0.437 | 0.859 | > 10 | 0.882 | – |
| CC(C)(C)OC(=O)N1CCC(Nc2nc3cc(C#N)ccc3c3sccc23)CC1 | 1.98 | > 10 | 2.44 | > 10 | > 10 | – |
| N#Cc1ccc2c(c1)nc(NC1CCNCC1)c1ccsc12 | 27.1 | 3.15 | 70.1 | > 10 | 1.26 | 0.416 |
| CC(C)(C)OC(=O)NC1CCN(c2nc3cc(C#N)ccc3c3sccc23)C1 (centres unmarked) | 11 | > 10 | 10 | > 10 | > 10 | – |
| N#Cc1ccc2c(c1)nc(N1CCC(N)C1)c1ccsc12 (centres unmarked) | -2.47 | > 10 | 9.1 | > 10 | > 10 | – |
| CN1CCC(Nc2nc3cc(C#N)ccc3c3sccc23)CC1 | -8.22 | 3.44 | 59.1 | > 10 | 7.52 | 1.03 |
| CC(C)(C)OC(=O)N1CCN(c2nc3cc(C#N)ccc3c3sccc23)CC1 | -35 | > 10 | -30.9 | > 10 | > 10 | – |
| N#Cc1ccc2c(c1)nc(N1CCNCC1)c1ccsc12 | -27.3 | 4.09 | 7.88 | > 10 | 9.33 | – |
| CC(C)(C)OC(=O)NCCCNc1nc2cc(C#N)ccc2c2sccc12 | -11.5 | > 10 | -30.8 | > 10 | > 10 | – |
| N#Cc1ccc2c(c1)nc(NCCCN)c1ccsc12 | 61.4 | 2.51 | 76.6 | > 10 | > 10 | 0.129 |
| CC(C)(C)OC(=O)N1CCCC1CNc1nc2cc(C#N)ccc2c2sccc12 (centres unmarked) | -35.2 | > 10 | -14.7 | > 10 | > 10 | – |
| N#Cc1ccc2c(c1)nc(NCC1CCCN1)c1ccsc12 (centres unmarked) | -23.8 | 2.73 | 14.1 | > 10 | 2.44 | – |

| SMILES | inhibition at 0.5 µM (recombinant human CK2) [%] | IC50 [1] [µM] | inhibition at 0.5 µM (recombinant human PIM1) [%] | IC50 (K-562) [µM] | IC50 (MV-4-11) [µM] | IC50 (recombinant human PIM1) [µM] |
| --- | --- | --- | --- | --- | --- | --- |
| CC(C)(C)OC(=O)N1CCCC1CCNc1nc2cc(C#N)ccc2c2sccc12 (centres unmarked) | -22.4 | > 10 | -13 | > 10 | > 10 | – |
| N#Cc1ccc2c(c1)nc(NCCC1CCCN1)c1ccsc12 (centres unmarked) | 37.1 | 1.87 | 36.2 | > 10 | 2.82 | – |
| CN(c1nc2cc(C#N)ccc2c2sccc12)C(C1CC1)C1CC1 | -17.1 | > 10 | -19 | > 10 | > 10 | – |
| CN(C)CCCN(C)c1nc2cc(-c3nnn[nH]3)ccc2c2sccc12 | 60.1 | > 10 | 70.5 | > 10 | > 10 | 0.221 |
| CNC(=O)c1ccc2c(c1)nc(NCCN(C)C)c1ccsc12 | 8.24 | > 10 | 5.73 | > 10 | 0.535 | – |
| CN(C)CCNc1nc2cc(C(=O)NC3CC3)ccc2c2sccc12 | 1.39 | 2.34 | 13.7 | 1.89 | > 10 | – |
| CN(C)CCNc1nc2cc(C(=O)N(C)C)ccc2c2sccc12 | 11.8 | > 10 | -3.56 | > 10 | 0.999 | – |
| CN(C)CCNc1nc2cc(C(N)=O)ccc2c2sccc12 | 15.6 | 4.29 | 34 | 0.198 | 0.402 | – |
| CN1CCC(Nc2nc3cc(-c4nnn[nH]4)ccc3c3sccc23)CC1 | 1.28 | > 10 | 83.9 | > 10 | > 10 | 0.161 |
| CN1CCCC(Nc2nc3cc(-c4nnn[nH]4)ccc3c3sccc23)C1 (centres unmarked) | 31.4 | > 10 | 90.9 | > 10 | 0.658 | 0.109 |
| CC1(C)CC(Nc2nc3cc(-c4nnn[nH]4)ccc3c3sccc23)CC(C)(C)N1 | -5.33 | > 10 | 32.7 | > 10 | > 10 | – |
| CCN1CCCC1CNc1nc2cc(-c3nnn[nH]3)ccc2c2sccc12 (centres unmarked) | 55.7 | 0.397 | 103 | 0.175 | 0.174 | 0.098 |
| NC1CCN(c2nc3cc(-c4nnn[nH]4)ccc3c3sccc23)C1 (centres unmarked) | 30.8 | > 10 | 63.6 | > 10 | 1.15 | 0.489 |
| c1cc2c(N3CCC(N4CCCC4)CC3)nc3cc(-c4nnn[nH]4)ccc3c2s1 | 38.6 | > 10 | 90 | > 10 | 1.07 | 0.119 |
| c1ccc(CNc2nc3cc(-c4nnn[nH]4)ccc3c3sccc23)nc1 | 27.9 | > 10 | 16.8 | > 10 | 1 | – |
| COC(=O)c1ccc2c(c1)nc(NCCN(C)C)c1ccsc12 | -0.704 | 1.52 | -6.89 | 1.09 | 0.73 | – |
| CN(C)CCNc1nc2cc(C#N)ccc2c2sc(Br)cc12 | -7.27 | 0.704 | 12.1 | 0.719 | 0.588 | – |
| CN(C)CCNc1nc2cc(-c3nnn[nH]3)ccc2c2sc(Br)cc12 | 24.8 | > 10 | 60.7 | > 10 | > 10 | 0.656 |
| CN1CCN(c2nc3cc(-c4nnn[nH]4)ccc3c3sccc23)CC1 | 7.3 | > 10 | 81.3 | > 10 | > 10 | 0.178 |
| CN(C)CCNc1nc2cc(-c3nnc[nH]3)ccc2c2sccc12 | -76.9 | > 10 | -2.14 | > 10 | 6.04 | – |
| c1cc2c(NC3CCNCC3)nc3cc(-c4nnn[nH]4)ccc3c2s1 | -21.2 | > 10 | 85.7 | > 10 | > 10 | 0.078 |
| CCCNc1nc2cc(-c3nnn[nH]3)ccc2c2sccc12 | 31.1 | > 10 | 59.1 | > 10 | > 10 | > 1.1 |
| CC(C)(C)OC(=O)N1CCCC1CNc1nc2cc(-c3nnn[nH]3)ccc2c2sccc12 (centres unmarked) | 27 | > 10 | 35 | > 10 | > 10 | – |
